In patent US10478501B2, “Method of treating disorders using a pharmaceutical composition of oligopeptides” (Merck Patent GmbH, priority 2011, dated 2019):

Experiments:
[1] = test system: MDA-MB-231 breast cancer bone metastases; assay: Experimental breast cancer bone metastases in nude rats: volumes of osteolytic lesions and soft tissue components by VCT and MRI; format: in vivo, nude rats (RNU strain); conditions: for Mean relative values of the OL (osteolytic lesion) volumes, increase compared to initial values at day 30 / Mean relative STC (soft tissue component) volume, increase compared to initial values at day 30: 75 mg/kg i.p. five times per week from day 30
Protocol: (§1) Nude rats (RNU strain) are obtained from Harlan-Winkelmann GmbH (Borchen, Germany) at the age of six weeks and housed in a specific pathogen-free environment in a mini barrier system of the central animal facility. Animals are kept under controlled conditions (21±2° C. room temperature, 60% humidity, 12 h light-dark rhythm) and offered autoclaved food and water ad libitum. Sub-confluent MDAMB-231 cells are harvested using 0.05% Trypsin-EDTA (Gibco®; Invitrogen, Karlsruhe, Germany) counted on a Neubauer's chamber and resuspended in RPMI-1640 to a final concentration of 10^5 cells in 200 μl. Rats are anesthetized using a mixture of nitrous oxide (1 l/min), oxygen (0.5 l/min) and isoflurane (1.5 vol. %). Arterial branches of the right hind leg are dissected and 10^5 cells injected into the superficial epigastric artery as described previously.^28 Bone metastases established and are observed exclusively in the femur, tibia and fibula of the right hind leg. 30 days after cancer cell transplantation, rats (n=24) are randomly divided into two groups, one group receiving the cyclic RGD-peptide inhibitor of αvβ3/αvβ5 integrins (cilengitide, EMD 121974^14, 17, 29; Merck, Darmstadt, Germany) intraperitoneally five times per week (75 mg/kg; n=12 rats) and the other, sham-treated group, serving as a control (n=12 rats). The observation period of all animals is 55 days and no rat in the study dies ahead of schedule.
After the inoculation of cancer cells each rat is imaged at days 30, 35, 45 and 55 using (i) a flat-panel equipped volumetric computed tomograph (Volume CT, Siemens, Germany) and (ii) a 1.5T clinical magnetic resonance scanner (Symphony, Siemens, Erlangen, Germany) equipped with a home-built receive-transmit coil (cylindrical volume resonator with an inner diameter of 83 mm and a usable length of 120 mm). Prior to in vivo imaging with VCT and MRI, rats are anesthetized with nitrous oxide, oxygen and isoflurane as described above.
VCT imaging is obtained using the following parameters: tube voltage 80 kV, tube current 50 mA, scan time 51 s, rotation speed 10 s, frames per second 120, matrix 512×512, and slice thickness 0.2 mm. Image reconstructions are performed using a modified FDK (Feldkamp Davis Kress) cone beam reconstruction algorithm (kernel H80a; Afra, Erlangen, Germany).
T2-weighted imaging is performed using a turbo spin echo sequence (orientation axial, TR 3240 ms, TE 81 ms, matrix 152×256, FOV 90×53.4 mm^2, slice thickness 1.5 mm, 3 averages, scan time 3 min 40 s). For dynamic contrast-enhanced MRI, a saturation recovery turbo flash sequence through the largest diameter of the tumor (orientation axial, TR 373 ms, TE 1.86 ms, matrix 192×144, FOV 130×97.5 mm, slice thickness 5 mm, measurements 512, averages 1, scan time 6 min 55 s) is used. After 20 s baseline, 0.1 mmol/kg Gd-DTPA (Magnevist; Bayer Schering Pharma, Berlin, Germany) is intravenously infused for a time period of 10 s.
Unenhanced VCT images and MRI-acquired T2-weighted images are analyzed using the Medical Imaging Interaction Toolkit (MITK, Heidelberg, Germany) to determine volumes of osteolytic lesions and soft tissue components, respectively. DCE-MRI acquired data is analyzed using the Dynalab workstation (Mevis Research, Bremen, Germany) according to the two-compartment model of Brix to determine the parameters amplitude A and exchange rate constant kep, as described.^23, 30 Briefly, the injected contrast media is distributed in both compartments (intravascular space and extravascular, interstitial space). The accumulation of contrast agent in these compartments over time is characterized by the amplitude A (associated with blood volume), whereas the exchange of contrast agent between the intravascular space and the interstitial space is characterized by the exchange rate constant kep (associated with vessel permeability). […]

[2] = test system: MDA-MB-231 breast cancer bone metastases; assay: Experimental breast cancer bone metastases in nude rats: histology / immunofluorescence of tumor vessels; format: in vivo, nude rats (RNU strain); conditions: after 4 weeks treatment (control rats 8.8 μm; p<0.01)
Protocol: as §1, with “30 days after cancer cell transplantation, rats (n=24) are randomly divided into two groups, one group receiving the cyclic RGD-peptide inhibitor of αvβ3/αvβ5 integrins (cilengitide, EMD 121974^14, 17, 29; Merck, Darmstadt, Germany) intraperitoneally five times per week (75 mg/kg; n=12 rats) and the other, sham-treated group, serving as a control (n=12 rats). The observation period of all animals is 55 days and no rat in the study dies ahead of schedule.” left out
At the end of the observation period lower limbs of each animal are amputated and muscular tissue removed. […] Mean positive area fractions of SMA and collagen IV (in percent) as well as mean vessel diameters (in μm) are determined from 4 representative animals of each group analyzing 10 fields of view chosen randomly from each rat using Analysis Software (cell^F; Olympus Soft Imaging Solutions, Münster, Germany). […]

[3] = test system: U251 MG; assay: U251 MG xenograft orthotopic brain model in nude rat, cilengitide with radiation; format: in vivo; conditions: for Tumor volume (mm^3) median (histologic, Alu ISH): median (range)
Protocol: Synergistic Effect of the Combination of Cilengitide with Radiation in U251 MG Xenograft Orthotopic Brain Model in Nude Rat Caspase 3 Staining (Shown in FIG. 17) [table] RT is radiotherapy. Single dose. EMD is cilengitide. Single dose.

[4] = EMD (cilengitide) single dose + RT single dose, Control 41, RT 113, listed as EMD + RT

With `CC(C)[C@H]1C(=O)N[C@@H](CCCN=C(N)N)C(=O)NCC(=O)N[C@@H](CC(=O)O)C(=O)N[C@H](Cc2ccccc2)C(=O)N1C` [Cilengitide, cyclo-(Arg-Gly-Asp-DPhe-NMeVal)] the “Mean relative values of the OL (osteolytic lesion) volumes, increase compared to initial values at day 30” value ([1]; day 35 (control 1.9 fold)) was 1.5 fold, the “Mean relative STC (soft tissue component) volume, increase compared to initial values at day 30” value ([1]; day 35 (control 2.3 fold)) was 2.2 fold and the “Mean relative values of the OL (osteolytic lesion) volumes, increase compared to initial values at day 30” value ([1]; day 45 (control 4.5 fold, p<0.05)) was 2.4 fold. For the same molecule, the “Mean relative STC (soft tissue component) volume, increase compared to initial values at day 30” value ([1]; day 45 (control 10.4 fold, p<0.05)) was 4.9 fold, the “Mean relative values of the OL (osteolytic lesion) volumes, increase compared to initial values at day 30” value ([1]; day 55 (control 9.7 fold, p<0.01)) was 3.5 fold and the “Mean relative STC (soft tissue component) volume, increase compared to initial values at day 30” value ([1]; day 55 (control 22.5 fold, p<0.01)) was 6.3 fold. The “rats showing new bone formation under therapy as imaged by VCT” value ([1]; treatment group, three of 12 rats, not in control animals) was 25%, the “mean vessel diameter in bone metastases” value [2] was 6.6 μm and the “Days post implant (range)” value ([3]; Cilengitide + RT, at 4 months) was 131 (≥131) days. For the same molecule, the “Tumor volume (mm^3) median (histologic, Alu ISH)” value ([3]; Cilengitide + RT, at 4 months) was 0.10 (0.06-0.14) mm^3, the “Tumor volume (mm^3) median (histologic, Alu ISH)” value ([3]; Cilengitide alone, at time of symptoms) was 175 (158-208) mm^3 and the “MRI finding of rat brain” value ([3]; Cilengitide alone, representative animal imaged at 17d) was “contrast-enhancing tumor is visible”. For the same molecule, the “Days post implant (range)” value ([3]; Cilengitide alone, time of symptoms) was 40 (40-41) days, the “MRI finding of rat brain” value ([3]; Cilengitide+RT, representative animal imaged at 68 days (T2-MRI)) was “no tumor is visible” and the “Median Survival” value [3, 4] was over 154 days. The “Median Survival in Days” value [3, 4] was over 154 vs 113 Days.
